Key:
[1] = tested on: Aggregatibacter actinomycetemcomitans (A.a.); assay: nitrate reductase (NR) activity of A.a. (Griess test); type: cell-based
Description: (§1) For evaluation of nitric oxide producing capability of oral bacteria, overnight cultures of test organisms were washed once and transferred into a medium without any nitrate or nitrite compounds. A 0.5% (or 1%) KNO3 was added to the medium, and further incubated anaerobically at 37° C. for 24-48 hours. The concentration of nitrite (due to reduction of nitrate by nitrate reductase) was determined by Griess Test over a desired period of time.
(§2) To examine the effect of natural and chemical antimicrobial agents on NO production, test bacteria were pre-exposed to magnolia bark extract (MBE) (a natural germ-kill compound), peppermint oil, and chlorhexidine (CHX). The activities of nitrate reductase from oral bacteria were assayed by Griess test as described above. No treatment controls were included for each test bacterial species. The production of nitrite was reduced if the test antimicrobial compounds affected the nitrate reductase activity. Dose response curves were prepared.
A. actinomycetemcomitans (A.a.) was grown anaerobically in THB broth supplemented with 1% yeast extract with 0.001% Hemin, and 0.0001% Vitamin K.
The nitrate source KNO3 (0.1% final) was added to respective growth media for individual test bacteria and incubated for 24-48 hours, then 20 μl of the culture broth was withdrawn and tested for nitrite with Griess reagent.
Test bacteria were grown in respective media anaerobically for 48 hours. Cells were centrifuged and re-suspended in buffer or fresh medium for NR activity testing. […]
(§3) Test bacteria cells were incubated with 1% cysteine in growth medium and 0.3% of a nitrate source. Controls contained no cysteine.

oral microbiota = conditions: mouthwash containing 0.12% of chlorhexidine, cited from earlier work
[2] = tested on: Aggregatibacter actinomycetemcomitans (A.a.); assay: short-term time-kill against A.a. (viable colony on agar); type: cell-based; set-up: key to viable colony: +: viable colony; −: no viable colony; conditions: for viable colony: stop reagent
Description: Fresh grown cells were harvested and adjusted to OD550 nm=0.5, then mixed with CHX (75-1,000 μg/ml). At different time points, an aliquot of cells was removed and mixed with (or without) stop reagent (0.5% Tween 80 and 0.07% Lecithin) to stop the CHX reaction on cells. The treated cells were centrifuged to remove the supernatant that contained CHX, and the cell pellet was spotted on BHI agar (supplemented with 0.001% Hemin, 0.0001% Vitamin K) for cell viability. Fresh grown cells were harvested and mixed with MBE for a short period of time and the viability of treated cells were evaluated. 10% DMSO was used to wash the treated cells and the MBE was removed from the assay system. Immediately after treatment, 10% DMSO was added to the cell mixture. The cell mixture was then centrifuged and washed once more with 10% DMSO. Cells treated with MBE for various times were spotted on an agar plate, […] and noted for viable colony development.

[3] = tested on: Veillonella atypica (ATCC 17744) (V.a.); assay: nitrate reductase (NR) activity of V.a (Griess test); type: cell-based; conditions: for NR activity of CHX treated V.a (OD): Reduced Transport buffer
Description: as §1, §2
V. atypica was grown in RCM medium without (NH4)2SO4 (to avoid the NH4 affecting Griess reagent); and without agar (0.05%, to avoid affecting the OD measurement).
The method used was the same as that for A.a., except the V.a cell concentration was adjusted to OD550 nm=0.7 (10^8 CFR/ml) in Reduced Transport buffer. The NR activity was also determined in the same buffer system. […]
as §3

[4] = chlorhexidine >=10 μg/ml, summary

[H]/N=C(\N/C(=N/[H])NCCCCCCNC(=N)NC(=N)Nc1ccc(Cl)cc1)Nc1ccc(Cl)cc1 [CHX, chlorhexidine]
NR activity of CHX treated A.a. ([1]; CHX 100 μg/ml for 10 min): inhibited NR activity | OD at 550 nm for A.a. NR activity test ([1]; CHX 100 μg/ml, 1 min treatment, 2nd trial, 2 hr): 0.212 OD | OD at 550 nm for A.a. NR activity test ([1]; CHX 100 μg/ml, 1 min treatment, 2nd trial, 3 hr): 0.856 OD | OD at 550 nm for A.a. NR activity test ([1]; CHX 100 μg/ml, 1 min treatment, 3rd trial, 2 hr): 0.844 OD | OD at 550 nm for A.a. NR activity test ([1]; CHX 100 μg/ml, 10 min treatment, 1st trial, 2 hr): 0.117 OD | OD at 550 nm for A.a. NR activity test ([1]; CHX 100 μg/ml, 10 min treatment, 1st trial, 3 hr): 0.130 OD | OD at 550 nm for A.a. NR activity test ([1]; CHX 100 μg/ml, 10 min treatment, 2nd trial, 2 hr): 0.284 OD | OD at 550 nm for A.a. NR activity test ([1]; CHX 200 μg/ml, 1 min treatment, 2nd trial, 2 hr): 0.279 OD | OD at 550 nm for A.a. NR activity test ([1]; CHX 200 μg/ml, 1 min treatment, 2nd trial, 3 hr): 0.849 OD | OD at 550 nm for A.a. NR activity test ([1]; CHX 200 μg/ml, 1 min treatment, 3rd trial, 2 hr): 0.852 OD | OD at 550 nm for A.a. NR activity test ([1]; CHX 200 μg/ml, 10 min treatment, 1st trial, 2 hr): 0.125 OD | OD at 550 nm for A.a. NR activity test ([1]; CHX 200 μg/ml, 10 min treatment, 1st trial, 3 hr): 0.127 OD | OD at 550 nm for A.a. NR activity test ([1]; CHX 200 μg/ml, 10 min treatment, 2nd trial, 2 hr): 0.125 OD | OD at 550 nm for A.a. NR activity test ([1]; CHX 300 μg/ml, 1 min treatment, 1st trial, 2 hr): 0.263 OD | OD at 550 nm for A.a. NR activity test ([1]; CHX 300 μg/ml, 1 min treatment, 2nd trial, 2 hr): 0.134 OD | OD at 550 nm for A.a. NR activity test ([1]; CHX 300 μg/ml, 1 min treatment, 2nd trial, 3 hr): 0.260 OD | OD at 550 nm for A.a. NR activity test ([1]; CHX 300 μg/ml, 1 min treatment, 3rd trial, 2 hr): 0.853 OD | OD at 550 nm for A.a. NR activity test ([1]; CHX 300 μg/ml, 10 min treatment, 1st trial, 2 hr): 0.115 OD | OD at 550 nm for A.a. NR activity test ([1]; CHX 300 μg/ml, 10 min treatment, 1st trial, 3 hr): 0.130 OD | OD at 550 nm for A.a. NR activity test ([1]; CHX 300 μg/ml, 10 min treatment, 2nd trial, 2 hr): 0.129 OD | OD at 550 nm for A.a. NR activity test ([1]; CHX 500 μg/ml, 1 min treatment, 1st trial, 2 hr): 0.284 OD | OD at 550 nm for A.a. NR activity test ([1]; CHX 500 μg/ml, 1 min treatment, 2nd trial, 2 hr): 0.107 OD | OD at 550 nm for A.a. NR activity test ([1]; CHX 500 μg/ml, 1 min treatment, 2nd trial, 3 hr): 0.213 OD | OD at 550 nm for A.a. NR activity test ([1]; CHX 500 μg/ml, 1 min treatment, 3rd trial, 2 hr): 0.443 OD | OD at 550 nm for A.a. NR activity test ([1]; CHX 500 μg/ml, 10 min treatment, 1st trial, 2 hr): 0.114 OD | OD at 550 nm for A.a. NR activity test ([1]; CHX 500 μg/ml, 10 min treatment, 1st trial, 3 hr): 0.118 OD | OD at 550 nm for A.a. NR activity test ([1]; CHX 500 μg/ml, 10 min treatment, 2nd trial, 2 hr): 0.131 OD | OD at 550 nm for A.a. NR activity test ([1]; CHX 750 μg/ml, 1 min treatment, 1st trial, 2 hr): 0.148 OD | OD at 550 nm for A.a. NR activity test ([1]; CHX 750 μg/ml, 1 min treatment, 2nd trial, 2 hr): 0.107 OD | OD at 550 nm for A.a. NR activity test ([1]; CHX 750 μg/ml, 1 min treatment, 2nd trial, 3 hr): 0.169 OD | OD at 550 nm for A.a. NR activity test ([1]; CHX 750 μg/ml, 1 min treatment, 3rd trial, 2 hr): 0.391 OD | OD at 550 nm for A.a. NR activity test ([1]; CHX 750 μg/ml, 10 min treatment, 1st trial, 2 hr): 0.118 OD | OD at 550 nm for A.a. NR activity test ([1]; CHX 750 μg/ml, 10 min treatment, 1st trial, 3 hr): 0.141 OD | OD at 550 nm for A.a. NR activity test ([1]; CHX 750 μg/ml, 10 min treatment, 2nd trial, 2 hr): 0.112 OD | NR activity of CHX treated A.a. ([1]; CHX 1,000 μg/ml (0.1%) for 1 min): completely inhibited NR activity | OD at 550 nm for A.a. NR activity test ([1]; CHX 1000 μg/ml, 1 min treatment, 1st trial, 2 hr): 0.160 OD | activities of nitrate reductase [1, 4]: significantly inhibits | VSC-producing bacteria and enteric nitric oxide producing bacteria (oral microbiota): reduced | oral and plasma nitrite levels (oral microbiota; healthy human volunteers): reduced | systolic and diastolic blood pressure (oral microbiota; healthy human volunteers): sustained increase | viable colony ([2]; CHX 75 μg/ml, treatment time 0 min): + | viable colony ([2]; CHX 75 μg/ml, treatment time 5 min): + | viable colony ([2]; CHX 75 μg/ml, treatment time 30 min): + | viable colony ([2]; CHX 75 μg/ml, treatment time 60 min): + | viable colony ([2]; CHX 100 μg/ml, treatment time 0 min): + | viable colony ([2]; CHX 100 μg/ml, treatment time 1 min): + | viable colony ([2]; CHX 100 μg/ml, treatment time 3 min): + | viable colony ([2]; CHX 100 μg/ml, treatment time 5 min): + | viable colony ([2]; CHX 100 μg/ml, treatment time 10 min): + | viable colony ([2]; CHX 100 μg/ml, treatment time 30 min): + | viable colony ([2]; CHX 100 μg/ml, treatment time 60 min): − | viable colony ([2]; CHX 200 μg/ml, treatment time 0 min): + | viable colony ([2]; CHX 200 μg/ml, treatment time 1 min): + | viable colony ([2]; CHX 200 μg/ml, treatment time 2 min): + | viable colony ([2]; CHX 200 μg/ml, treatment time 3 min): + | viable colony ([2]; CHX 200 μg/ml, treatment time 5 min): + | viable colony ([2]; CHX 200 μg/ml, treatment time 10 min): + | viable colony ([2]; CHX 200 μg/ml, treatment time 30 min): − | viable colony ([2]; CHX 200 μg/ml, treatment time 60 min): − | viable colony ([2]; CHX 300 μg/ml, treatment time 0 min): + | viable colony ([2]; CHX 300 μg/ml, treatment time 1 min): + | viable colony ([2]; CHX 300 μg/ml, treatment time 2 min): + | viable colony ([2]; CHX 300 μg/ml, treatment time 3 min): + | viable colony ([2]; CHX 300 μg/ml, treatment time 5 min): + | viable colony ([2]; CHX 300 μg/ml, treatment time 10 min): + | viable colony ([2]; CHX 300 μg/ml, treatment time 30 min): − | viable colony ([2]; CHX 300 μg/ml, treatment time 60 min): − | viable colony ([2]; CHX 500 μg/ml, treatment time 0 min): + | viable colony ([2]; CHX 500 μg/ml, treatment time 1 min): + | viable colony ([2]; CHX 500 μg/ml, treatment time 2 min): + | viable colony ([2]; CHX 500 μg/ml, treatment time 3 min): + | viable colony ([2]; CHX 500 μg/ml, treatment time 5 min): + | viable colony ([2]; CHX 500 μg/ml, treatment time 10 min): − | viable colony ([2]; CHX 500 μg/ml, treatment time 30 min): − | viable colony ([2]; CHX 500 μg/ml, treatment time 60 min): − | viable colony ([2]; CHX 750 μg/ml, treatment time 0 min): + | viable colony ([2]; CHX 750 μg/ml, treatment time 1 min): + | viable colony ([2]; CHX 750 μg/ml, treatment time 2 min): + | viable colony ([2]; CHX 750 μg/ml, treatment time 3 min): + | viable colony ([2]; CHX 750 μg/ml, treatment time 5 min): + | viable colony ([2]; CHX 750 μg/ml, treatment time 10 min): − | viable colony ([2]; CHX 750 μg/ml, treatment time 30 min): − | viable colony ([2]; CHX 750 μg/ml, treatment time 60 min): − | viable colony ([2]; CHX 1000 μg/ml, treatment time 0 min): + | viable colony ([2]; CHX 1000 μg/ml, treatment time 1 min): + | viable colony ([2]; CHX 1000 μg/ml, treatment time 2 min): + | viable colony ([2]; CHX 1000 μg/ml, treatment time 3 min): − | viable colony ([2]; CHX 1000 μg/ml, treatment time 5 min): − | viable colony ([2]; CHX 1000 μg/ml, treatment time 30 min): − | viable colony ([2]; CHX 1000 μg/ml, treatment time 60 min): − | viability of A.a. ([2]; CHX 75-1,000 μg/ml, two-minute treatment, stop reagent added): limited viability | NR activity of CHX treated V.a (OD) ([3]; CHX 10 μg/ml, 1 min Treatment): 0.266 OD | NR activity of CHX treated V.a (OD) ([3]; CHX 10 μg/ml, 10 min Treatment): 0.300 OD | NR activity of CHX treated V.a (OD) ([3]; CHX 50 μg/ml, 1 min Treatment): 0.304 OD | NR activity of CHX treated V.a (OD) ([3]; CHX 50 μg/ml, 10 min Treatment): 0.282 OD | NR activity of CHX treated V.a (OD) ([3]; CHX 100 μg/ml, 1 min Treatment): 0.255 OD | NR activity of CHX treated V.a (OD) ([3]; CHX 100 μg/ml, 10 min Treatment): 0.280 OD | NR activity of CHX treated V.a (OD) ([3]; CHX 250 μg/ml, 1 min Treatment): 0.190 OD | NR activity of CHX treated V.a (OD) ([3]; CHX 250 μg/ml, 10 min Treatment): 0.161 OD | NR activity of CHX treated V.a (OD) ([3]; CHX 500 μg/ml, 1 min Treatment): 0.170 OD | NR activity of CHX treated V.a (OD) ([3]; CHX 500 μg/ml, 10 min Treatment): 0.162 OD | activities of nitrate reductase [3, 4]: significantly inhibits

Reference: patent publication US20260263334A1, “COMPOSITIONS CONTAINING NITRATE-RICH FOODS AND EXTRACTS FOR SHIFTING THE ORAL MICROBIOME” (WM. WRIGLEY JR. COMPANY, priority 2023, published 2026)
